Results from US7833964B2, “Methods of reducing visceral fat by increasing levels of insulin-like growth factor-I (IGF-I)” (Tercica, Inc., priority 2003, dated 2010).

Assays:
[1] = Adverse events judged possibly or probably related to study drug; settings: glyburide 10 mg BID + rhIGF-I placebo (N = 34)
Procedure: All adverse events occurring during the treatment and post-treatment periods of the study (day 1 to week 14) were monitored through the follow-up evaluation at week 14. Adverse events continuing beyond the follow-up period were monitored until resolution, as appropriate.
In addition to the adverse events described above, hypoglycemia was expected to occur in some subjects. Hypoglycemia was defined as a BG of <50 mg/dL as indicated by the One-Touch Profile BG meter or the clinical laboratory. In the event of repeated hypoglycemic episodes, the glyburide dose could be decreased (during the treatment period only). Symptomatic hypoglycemic episodes, regardless of blood glucose reading, were documented as hypoglycemia.

[2] = Mid-thigh CT scan: thigh adipose tissue (TAT); format: in vivo, human
Procedure: All CT scans were performed on GE Sytec 4000 CT scanners or an equivalent scanner.
An initial Thigh Scan was performed using the following procedure: • 1. The subject lay on the CT bed with his or her feet toward the scanner. The subject's knees were at least 3 inches above the extended bed joint, not over the joint. • 2. The legs were positioned so they were not touching each other and the hands were crossed over the abdomen so as not to interfere with the scan. • 3. The CT technician then positioned the bed. The entire femur was visualized in the initial topogram. • 4. The technician then made a topogram of the entire femur of the non-dominant leg and recorded this picture on the film. The length of the femur was then measured and recorded and this measurement was used to identify the midpoint of the femur. This midpoint was used to assess the cross section of the thigh. • 5. The technician took a 10-mm slice at the precise level of the mid-point of the femur with the following settings for a GE Sytec 4000 scanner: • kV=100 • MA=170 • 1 sec • DFOV=21 • Algorithm=standard
Technicians were advised that although settings for some scanners may be slightly different, the settings must be standardized so as to give the greatest definition for fat and lean tissue. Once the technician determined the appropriate setting for a scanner, he or she was advised to use the same settings for every (slice) scan. The topograms could be at different settings as the topograms would not be imaged. • 6. The entire cross section of the nondominant thigh was visualized on the screen. If the entire thigh was not visualized on the screen, the picture was reconfigured with a larger display field of view. Once the entire thigh was visualized on the screen, the technician downloaded the cross section to the disk. The disk was checked to make sure the image was actually there, and then the picture was recorded on film. • 7. The exam number, series number, and image number of the slice was then recorded. • 8. The technician sent the film to the printer at this point. The film was set at four pictures per film, and the film had for the femur the recorded total distance, the midpoint, and the slice of the thigh.
The same leg (left) was used as in the initial scan. A topogram of the thigh was taken, and a measurement made down the femur to the midpoint of the femur using the same distance as was used in the baseline thigh scan. A 10-mm cross section scan was taken at the midpoint using the identical settings as were used for the baseline scan. A record was made of the exam number, series number, and image number of the slice.
Slices were downloaded onto the scanner and then retrieved via optical disk (or the Internet if possible) to a computer for analysis. During analysis, the area of intra-abdominal and subcutaneous fat as well as oblique, psoas, quadratum laborum, and sacrospinalis muscles were measured. The images were digitized by optical density to separate bone, muscle, and fat compartments using a modified version of the NIH IMAGE program. Pixel units were converted to area measurements using an internal calibration standard. Digitized images were analyzed in a blinded fashion. The coefficient of variation of repeated analysis of a single scan is <1.5%.

[3] = ETDRS retinopathy score by fundus photography; format: in vivo, human
Procedure: Because concern existed regarding the effects of rhIGF-I on two types of ocular findings—progression of diabetic retinopathy and optic disc swelling—the occurrence of such findings was recorded as a measure of safety. An ophthalmologic visit for dilated funduscopic examination was performed during the screening period. Additionally, fundus photography was performed on each subject prior to initiation of treatment with rhIGF-I or placebo between day 7 and day 1. When optic disc swelling was detected on the initial baseline photograph, the subject was terminated from the study immediately. If the baseline photograph was scored at an Early Treatment Diabetic Retinopathy Study (ETDRS) scale of greater than 35 in either eye, the subject was also not allowed to progress further in the study.
Both the ophthalmologic examination and fundus photography were repeated at the completion of the treatment period or at the early termination visit in the event of premature termination. The ophthalmologic exam was performed within 3 days of the fundus photography. In the event that optic disc swelling was detected on the fundus photograph obtained at the week 12 or early termination visits, subjects were asked to return for repeat fundus photography at 1-3 months following discontinuation from the study, and again at 3-month intervals until the optic disc swelling resolved.
Fundus photographs, obtained for each subject at week 12 or at the early termination visit, were compared with the photographs obtained prior to treatment in order to evaluate the development of retinopathy during the course of the study. The photographs for each eye were graded using the final version of the ETDRS scale. The resulting scores for each eye were combined to yield the ETDRS person score. A change between day 1 and week 12 (or early termination) in the full scale ETDRS person score of three or more levels (5 units) was recorded as a progression of retinopathy and as an adverse event.
A change in ETDRS level was the maximum difference between baseline and on-study or post-treatment values. A negative change indicated improvement.

[4] = IGF-I administration in human subjects; cited from earlier work
[5] = mini-poodles; cited from earlier work
[6] = injected in castrated male sheep; cited from earlier work
[7] = rats, catabolic state induced by diabetes, dexamethasone, or intestinal resection; cited from earlier work
[8] = glyburide 10 mg BID + rhIGF-I placebo (n = 29)
[9] = IGF-I 20 μg/kg, with glyburide or glyburide placebo per label
[10] = IGF-I 40 μg/kg, with glyburide or glyburide placebo per label
[11] = IGF-I 20 μg/kg BID, with glyburide (n = 36) or glyburide placebo (n = 35)
[12] = IGF-I 40 μg/kg BID, with glyburide (n = 36) or glyburide placebo (n = 33)

With COc1ccc(Cl)cc1C(=O)NCCc1ccc(S(=O)(=O)NC(=O)NC2CCCCC2)cc1 [Glyburide, glyburide, reference compound] as the compound, how does the “Adverse event: Arthralgia” value [1] read?
The value was 1 (3) n (%).

And the “Adverse event: Asthenia” value [1]?
Its value is 2 (6) n (%).

What about the “Adverse event: Headache” value [1] of the same compound?
Its value is 2 (6) n (%).

What about the “Adverse event: Hypoglycemia” value [1] of the same compound?
The value was 3 (9) n (%).

And the “Adverse event: Jaw pain” value [1]?
Its value is 1 (3) n (%).

What about the “Adverse event: Pain” value [1] of the same compound?
The value was 2 (6) n (%).

What about the “Adverse event: Peripheral Edema” value [1] of the same compound?
Its value is 0 n (%).

What about the “Change in TAT (%), mean (SEM)” value ([2]; glyburide active + IGF-I placebo) of the same compound?
Its value is 2.5 (2.0) %.

What about the “Change in TAT, mean (SEM)” value ([2]; glyburide active + IGF-I placebo, thigh CT, change from baseline) of the same compound?
Its value is 1.0 (1.6) sq cm.

What about the “subjects showing an improvement in retinal score” value (“subjects showing an improvement” below) ([3]; Placebo/glyburide group) of the same compound?
Its value is “one”.

And the “Change in ETDRS levels: 1- to 2-step Progression” value (“Change … to 2-step Progression” for short) [3, 8]?
The value was 8 (28) n (%).

And the “Change in ETDRS levels: No change” value [3, 8]?
Its value is 19 (66) n (%).

What about the “Change in ETDRS levels: −1- to −2-step progression (negative change = improvement)” value (shortened to “Change … (negative change = improvement)”) [3, 8] of the same compound?
Its value is 1 (3) n (%).

And the “Change in ETDRS levels: ≧3-step progression” value (from here on “Change … ≧3-step progression”) [3, 8]?
The value was 1 (3) n (%).

Which “Change in TAT (%), mean (SEM)” value [2, 9] does the source give for “IGF-I: recombinant human insulin-like growth factor-I from Genentech; sterile benzyl alcohol-preserved solution, 70 mg in 7 mL acetate/NaCl, pH 5.4; given SC” here?
The value was −1.4 (3.7) %.

What about the “Change in TAT, mean (SEM)” value [2, 9] of the same compound?
The value was −1.2 (2.8) sq cm.

And the “Change in TAT (%), mean (SEM)” value [2, 10]?
Its value is 3.9 (4.3) %.

What about the “Change in TAT, mean (SEM)” value [2, 10] of the same compound?
Its value is 0.3 (4.3) sq cm.

And the “effect on body fat and body composition” value [4]?
The value was “little effect”.

What about the body mass index [5] of the same compound?
The body mass index was “reduced body mass index”.

And the “effect on body fat” value [6]?
The value was “no detectable effect”.

What about the insulin levels [6] of the same compound?
The insulin levels was “lowered insulin levels”.

What about the “Change … to 2-step Progression” value [3, 11] of the same compound?
Its value is 4 (11) n (%).

What about the “Change in ETDRS levels: No change” value [3, 11] of the same compound?
Its value is 24 (69) n (%).

What about the “Change … (negative change = improvement)” value [3, 11] of the same compound?
The value was 6 (17) n (%).

What about the “Change … ≧3-step progression” value [3, 11] of the same compound?
The value was 1 (3) n (%).

And the “subjects showing an improvement” value ([3]; IGF-I 20 μg/kg BID, with glyburide or placebo per label)?
Its value is 6 subjects.

What about the “Change … to 2-step Progression” value [3, 12] of the same compound?
Its value is 7 (21) n (%).

And the “Change in ETDRS levels: No change” value [3, 12]?
The value was 20 (61) n (%).

And the “Change … (negative change = improvement)” value [3, 12]?
Its value is 5 (15) n (%).

What about the “Change … ≧3-step progression” value [3, 12] of the same compound?
The value was 0 n (%).

And the “subjects showing an improvement” value ([3]; IGF-I 40 μg/kg BID, with glyburide or placebo per label)?
Its value is 5 subjects.

And the “progression of retinopathy (increases in the ETDRS scores)” value ([3]; IGF-I 20 or 40 μg/kg BID, 12 weeks, type II DM subjects)?
Its value is “did not cause a progression of retinopathy”.

What about the “percentage of body fat” value [7] of the same compound?
Its value is “trend toward a lower percentage of body fat”.
